Bounds are passed on as bounds.

In this assay the target is ABL1 (64-515) (Homo sapiens (Human), UniProt P00519). As to the kind of experiment: Radio ABL1 (64-515) assay (radiometric filter-binding). It counts as biochemical.
Sequence of ABL1 (64-515) (P00519 64-515): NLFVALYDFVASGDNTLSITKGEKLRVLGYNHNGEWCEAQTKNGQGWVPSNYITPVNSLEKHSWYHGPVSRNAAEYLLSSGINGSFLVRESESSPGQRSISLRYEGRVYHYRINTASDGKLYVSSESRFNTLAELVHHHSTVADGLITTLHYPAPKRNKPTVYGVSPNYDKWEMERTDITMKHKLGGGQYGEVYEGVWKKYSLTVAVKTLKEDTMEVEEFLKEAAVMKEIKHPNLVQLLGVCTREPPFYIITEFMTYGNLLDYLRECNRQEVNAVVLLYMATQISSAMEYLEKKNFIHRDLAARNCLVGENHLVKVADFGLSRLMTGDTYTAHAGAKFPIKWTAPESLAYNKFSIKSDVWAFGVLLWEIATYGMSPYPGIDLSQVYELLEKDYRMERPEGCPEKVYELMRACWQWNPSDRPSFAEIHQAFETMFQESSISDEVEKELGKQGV
Consider `CN[C@@H]1CCN(c2ncc(C(=O)Nc3ccc(OC(F)(F)F)cc3)cc2-c2ccc(C)nc2)C1` [Example 101, (R)-6′-Methyl-2-(3-(methylamino)pyrrolidin-1-yl)-N-(4-(trifluoromethoxy)phenyl)-[3,3′-bipyridine]-5-carboxamide], for which the concentration for half-maximal inhibition (IC50) – broadly, the concentration that inhibits the measured activity by half – was < 3 nM.

Turning to `CN[C@H]1CCN(c2ncc(C(=O)Nc3ccc(OC(F)(F)F)cc3)cc2-c2cccnc2)C1` [Example 103, (S)-2-(3-(Methylamino)pyrrolidin-1-yl)-N-(4-(trifluoromethoxy)phenyl)-[3,3′-bipyridine]-5-carboxamide], the IC50 was < 3 nM.

Consider `CN[C@H]1CCN(c2ncc(C(=O)Nc3ccc(OC(F)(F)F)cc3)cc2-c2ccc(C)nc2)C1` [Example 104, (S)-6′-Methyl-2-(3-(methylamino)pyrrolidin-1-yl)-N-(4-(trifluoromethoxy)phenyl)-[3,3′-bipyridine]-5-carboxamide], for which the IC50 worked out at 3 nM.

As for `NC[C@H]1CCN(c2ncc(C(=O)Nc3ccc(OC(F)(F)F)cc3)cc2-c2cccnc2)C1` [Example 106, (R)-2-(3-(Aminomethyl)pyrrolidin-1-yl)-N-(4-(trifluoromethoxy)phenyl)-[3,3′-bipyridine]-5-carboxamide], the IC50 is < 3 nM.

Consider `Cc1ccc(-c2cc(C(=O)Nc3ccc(OC(F)(F)F)cc3)cnc2N2CC[C@H](CN)C2)cn1` [Example 107, (R)-2-(3-(Aminomethyl)pyrrolidin-1-yl)-6′-methyl-N-(4-(trifluoromethoxy)phenyl)-[3,3′-bipyridine]-5-carboxamide], for which the half-inhibitory concentration (IC50) is < 3 nM.

As to `NC[C@@H]1CCN(c2ncc(C(=O)Nc3ccc(OC(F)(F)F)cc3)cc2-c2cccnc2)C1` [Example 109, (S)-2-(3-(Aminomethyl)pyrrolidin-1-yl)-N-(4-(trifluoromethoxy)phenyl)-[3,3′-bipyridine]-5-carboxamide], the half-maximal inhibitory concentration (IC50) was < 3 nM.

Molecule `Cc1ccc(-c2cc(C(=O)Nc3ccc(OC(F)(F)F)cc3)cnc2N2CC[C@@H](CN)C2)cn1` [Example 110, (S)-2-(3-(Aminomethyl)pyrrolidin-1-yl)-6′-methyl-N-(4-(trifluoromethoxy)phenyl)-[3,3′-bipyridine]-5-carboxamide] came in with an IC50 of 5 nM.

Regarding `COc1ccc(-c2cc(C(=O)Nc3ccc(OC(F)(F)F)cc3)cnc2N2CC[C@@H](CN)C2)cn1` [Example 111, (S)-2-(3-(Aminomethyl)pyrrolidin-1-yl)-6′-methoxy-N-(4-(trifluoromethoxy)phenyl)-[3,3′-bipyridine]-5-carboxamide], the half-maximal inhibitory concentration (IC50) was < 3 nM.

For the molecule `CN(C)C1CCN(c2ncc(C(=O)Nc3ccc(OC(F)(F)F)cc3)cc2-c2cncnc2)C1` (stereo not drawn) [Example 112, 6-(3-(Dimethylamino)pyrrolidin-1-yl)-5-(pyrimidin-5-yl)-N-(4-(trifluoromethoxy)phenyl)nicotinamide], the IC50 is < 3 nM.

Consider `CC(C)(O)C1CCN(c2ncc(C(=O)Nc3ccc(OC(F)(F)F)cc3)cc2-c2cccnc2)C1` (stereo not drawn) [Example 114, 2-(3-(2-Hydroxypropan-2-yl)pyrrolidin-1-yl)-N-(4-(trifluoromethoxy)phenyl)-[3,3′-bipyridine]-5-carboxamide], for which the concentration for half-maximal inhibition (IC50) was determined as 6 nM.

As to `Cc1ccc(-c2cc(C(=O)Nc3ccc(OC(F)(F)F)cc3)cnc2N2CCC(C(C)(C)O)C2)cn1` (stereo not drawn) [Example 115, 2-(3-(2-Hydroxypropan-2-yl)pyrrolidin-1-yl)-6′-methyl-N-(4-(trifluoromethoxy)phenyl)-[3,3′-bipyridine]-5-carboxamide], the concentration for half-maximal inhibition (IC50) came to 16 nM.

On to `CC1(O)CN(c2ncc(C(=O)Nc3ccc(OC(F)(F)F)cc3)cc2-c2cnc(Cl)c(F)c2)C1` [Example 134, 6′-Chloro-5′-fluoro-2-(3-hydroxy-3-methylazetidin-1-yl)-N-(4-(trifluoromethoxy)phenyl)-[3,3′-bipyridine]-5-carboxamide], for which the IC50 amounted to 10 nM.

Regarding `Cc1ncc(-c2cc(C(=O)Nc3ccc(OC(F)(F)F)cc3)cnc2N2CC(CO)C2)cn1` [Example 136, 6-(3-(Hydroxymethyl)azetidin-1-yl)-5-(2-methylpyrimidin-5-yl)-N-(4-(trifluoromethoxy)phenyl)nicotinamide], the IC50 is < 3 nM.

Turning to `O=C(Nc1ccc(OC(F)(F)F)cc1)c1cnc(N2CC(CO)C2)c(-c2cnc(Cl)c(F)c2)c1` [Example 141, 6′-Chloro-5′-fluoro-2-(3-(hydroxymethyl)azetidin-1-yl)-N-(4-(trifluoromethoxy)phenyl)-[3,3′-bipyridine]-5-carboxamide], the IC50 was found to be 6 nM.

In turn, `O=C(Nc1ccc(OC(F)(F)F)cc1)c1cnc(N2CCCNCC2)c(-c2cccnc2)c1` [Example 145, 2-(1,4-Diazepan-1-yl)-N-(4-(trifluoromethoxy)phenyl)-[3,3′-bipyridine]-5-carboxamide] registered an IC50 of 4 nM.

As for `CN1CCCN(c2ncc(C(=O)Nc3ccc(OC(F)(F)F)cc3)cc2-c2cccnc2)CC1` [Example 146, 2-(4-Methyl-1,4-diazepan-1-yl)-N-(4-(trifluoromethoxy)phenyl)-[3,3′-bipyridine]-5-carboxamide], the half-maximal inhibitory concentration (IC50) is < 3 nM.

In the case of `Cc1ccc(-c2cc(C(=O)Nc3ccc(OC(F)(F)F)cc3)cnc2N2CCCN(C)CC2)cn1` [Example 147, 6′-Methyl-2-(4-methyl-1,4-diazepan-1-yl)-N-(4-(trifluoromethoxy)phenyl)-[3,3′-bipyridine]-5-carboxamide], the 50% inhibitory concentration (IC50) was < 3 nM.

For `Cc1ccc(-c2cc(C(=O)Nc3ccc(OC(F)(F)F)cc3)cnc2N(C)CCO)cn1` [Example 153, 2-((2-Hydroxyethyl)(methyl)amino)-6′-methyl-N-(4-(trifluoromethoxy)phenyl)-[3,3′-bipyridine]-5-carboxamide], the IC50 was < 3 nM.

With `O=C(Nc1ccc(OC(F)(F)F)cc1)c1cnc(NCCO)c(-c2cccnc2)c1` [Example 159, 2-((2-Hydroxyethyl)amino)-N-(4-(trifluoromethoxy)phenyl)-[3,3′-bipyridine]-5-carboxamide], the half-maximal inhibitory concentration (IC50) was < 3 nM.

In the case of `Cc1ccc(-c2cc(C(=O)Nc3ccc(OC(F)(F)F)cc3)cnc2NCCO)cn1` [Example 160, 2-((2-Hydroxyethyl)amino)-6′-methyl-N-(4-(trifluoromethoxy)phenyl)-[3,3′-bipyridine]-5-carboxamide], the concentration for half-maximal inhibition (IC50) is < 3 nM.

As for `Cc1ccc(-c2cc(C(=O)Nc3ccc(OC(F)(F)F)cc3)cnc2NCCCO)cn1` [Example 163, 2-((3-Hydroxypropyl)amino)-6′-methyl-N-(4-(trifluoromethoxy)phenyl)-[3,3′-bipyridine]-5-carboxamide], the 50% inhibitory concentration (IC50) is < 3 nM.

As to `COc1ccc(-c2cc(C(=O)Nc3ccc(OC(F)(F)F)cc3)cnc2NCCCO)cn1` [Example 164, 2-((3-Hydroxypropyl)amino)-6′-methoxy-N-(4-(trifluoromethoxy)phenyl)-[3,3′-bipyridine]-5-carboxamide], the IC50 amounted to 12 nM.

Regarding `CN(CCCO)c1ncc(C(=O)Nc2ccc(OC(F)(F)F)cc2)cc1-c1cncnc1` [Example 165, 6-((3-Hydroxypropyl)(methyl)amino)-5-(pyrimidin-5-yl)-N-(4-(trifluoromethoxy)phenyl)nicotinamide], the IC50 was < 3 nM.

`Cc1ccc(-c2cc(C(=O)Nc3ccc(OC(F)(F)F)cc3)cnc2N(C)CCCO)cn1` [Example 167, 2-((3-Hydroxypropyl)(methyl)amino)-6′-methyl-N-(4-(trifluoromethoxy)phenyl)-[3,3′-bipyridine]-5-carboxamide]: the half-maximal inhibitory concentration (IC50) came out at 30 nM.
